Target: T1, Fascin1 (Homo sapiens, UniProt Q16658)
T1 construct: gene FSCN1; full-length human Fascin1; in-house protein from pGEX-6P-2A (N-terminal GST, 3C site) in E. coli BL21-gold(DE3), GST cleaved with PreScission
Experiment: intrinsic fluorescence titration
Assay type: binding

Kd: 180 ± 10 µM
SMILES: Cc1nnc(C(=O)NC(C)(C)c2nc(C(=O)NCc3ccc(F)cc3)c(O)c(=O)n2C)o1 [raltegravir]
